Assay: Sun Screen Solubility (appearance of sunscreen dissolved in ester)
Format: physicochemical
Conditions: for Age Appearance: after 48 hours at room temperature, 24 hours in refrigerator (37° F.) and 48 hours at room temperature; for Initial Appearance: solvent ester not named

Row | Age Appearance (1% weight sunscreen) | Initial Appearance (1% weight sunscreen) | Age Appearance (3% weight sunscreen) | Initial Appearance (3% weight sunscreen) | Compound
1 | Very Slight Haze^(2) | Clear | Very Slight Haze^(2) | Clear | COc1ccc(C(=O)c2ccccc2)c(O)c1 [Benzophenone 3]
2 | Clear | Clear | – | – | CCCCC(CC)COC(=O)C=Cc1ccc(OC)cc1 (stereo not drawn) [Octylmethoxyciminate]

Reference: patent publication US7569607B2, “Spider esters in personal care applications” (SurfaTech Corporation, priority 2005, dated 2009)
